Laboratory results reported in article PMC9699089 (Pathogens, 2022).

What was measured:
[1] = test system: Plasmodium falciparum CQ-sensitive strain 3D7; experiment: In vitro antiplasmodial activity, SYBR Green I fluorescence-based method, strain 3D7; assay type: cell-based; conditions: CQ-sensitive strain 3D7, 48 h incubation, mean of three independent experiments, read-out: P. falciparum Strains IC50 Values 3D7
Method: (§1) The in vitro antiplasmodial activities were tested over concentrations ranging from 39 nM to 40 µM against culture-adapted Plasmodium falciparum reference strains 3D7 and W2. […] These two strains are obtained from the collection of the National Museum of Natural History (Paris, France). The parasites were cultivated in RPMI medium (Sigma Aldrich, Lyon, France) supplemented with 0.5% Albumax I (Life Technologies Corporation, Paisley, UK), hypoxanthine (Sigma Aldrich), and gentamicin (Sigma Aldrich) with human erythrocytes and were incubated at 37 °C in a candle jar, as described previously. The P. falciparum drug susceptibility test was carried out in 96-well flat bottom sterile plates in a final volume of 250 µL. After 48 h incubation period with the drugs, quantities of DNA in treated and control cultures of parasites in human erythrocytes were quantified using the SYBR Green I (Sigma Aldrich) fluorescence-based method. Briefly, after incubation, plates were frozen at -20 °C until use. Plates were then thawed for 2 h at room temperature, and 100 µL of each homogenized culture was transferred to a well of a 96-well flat bottom sterile black plate (Nunc, Inc.) that contained 100 µL of the SYBR Green I lysis buffer (2xSYBR Green, 20 mM Tris base pH 7.5, 5 mM EDTA, 0.008% w/v saponin, 0.08% w/v Triton X-100). […] Plates were incubated for 1 h at room temperature and then read on a fluorescence plate reader (Tecan, Austria) using excitation and emission wavelengths of 485 and 535 nm, respectively.

[2] = test system: human duplex sequence FdxT; experiment: FRET melting assay, duplex control FdxT; assay type: binding; conditions: compound 2 μM, oligonucleotide 0.2 μM, K+ conditions
Method: (§2) These were performed with dual-labeled oligonucleotides mimicking the Plasmodium telomeric sequences FPf1T [FAM-5′(GGGTTTA)3-GGG3′-TAMRA] and FPf8T [FAM-5′(GGGTTCA)3GGG3′-TAMRA], the Trypanosoma 9 and 11 chromosomic sequence FTrypBT (also named FEBR1T) [FAM-5′[…]3′-TAMRA], the human telomeric sequence F21T [FAM-(GGGTTA)3-GGG3′-TAMRA] and the human duplex sequence FdxT [FAM5′-[…]-hexaethyleneglycol-[…]3′-TAMRA] [27, 31, 47]. The oligonucleotides were pre-folded in 10 mM lithium cacodylate buffer (pH 7.2), with 10 mM KCl and 90 mM LiCl (K^+ condition). The FAM emissions were recorded at 516 nm using a 492-nm excitation wavelength in the absence and presence of a single compound as a function of temperature (25 to 95 °C) in 96-well microplates using a Stratagene MX3000P real-time PCR device at a rate of 1 °C∙min-1. Data were normalized between 0 and 1, and the required temperature for half-denaturation of oligonucleotides corresponding to the emission value of 0.5 was taken as the Tm. Each experiment was performed in duplicate with 0.2 µM of labeled oligonucleotide and 2 µM of compound under K^+ condition. For each compound, three independent experiments were carried out.

[3] = test system: T. brucei brucei AnTat 1.9; experiment: In vitro antitrypanosomal activity, Alamar Blue assay; assay type: cell-based, Trypanosoma brucei brucei; conditions: Trypanosoma brucei, slender bloodstream trypomastigotes, AnTat 1.9 strain; mean +/- SD of three independent experiments; read-out: Trypanosoma brucei brucei IC50 Values Trypanos Antat 1.9
Method: The effects of the tested compounds on the growth of T. brucei brucei were assessed using an Alamar Blue® assay described by Räz et al. T. brucei brucei AnTat 1.9 ([…], Belgium) was cultured in MEM with Earle's salts, supplemented according to the protocol of Baltz et al. […] All doses were tested in duplicate. Appropriate controls treated with solvents 0.9% NaCl or DMSO or with suramin, pentamidine, eflornithine, and fexinidazole (reference drugs purchased from Sigma Aldrich and Fluorochem, UK) were added to each set of experiments. After 69 h incubation period at 37 °C, 10 μL of the viability marker Alamar Blue (Fisher) was added to each well, and the plates were incubated for 5 h. The plates were read in a PerkinElmer ENSPIRE (Germany) microplate reader using an excitation wavelength of 530 nm and an emission wavelength of 590 nm.

[4] = test system: Plasmodium telomeric sequence FPf1T G-quadruplex; experiment: FRET melting assay, FPf1T; assay type: binding, Plasmodium falciparum; conditions: compound 2 μM, oligonucleotide 0.2 μM, K+ conditions
Method: as §2

[5] = test system: Plasmodium falciparum CQ-resistant strain W2; experiment: In vitro antiplasmodial activity, SYBR Green I fluorescence-based method, strain W2; assay type: cell-based; conditions: CQ-resistant strain W2, 48 h incubation, mean of three independent experiments, read-out: P. falciparum Strains IC50 Values W2
Method: as §1

[6] = test system: L. donovani (MHOM/IN/00/DEVI) promastigotes; experiment: In vitro antileishmanial activity on promastigotes, MTT assay; assay type: cell-based; conditions: Leishmania donovani, 72 h incubation, mean +/- SD of three independent experiments
Method: L. donovani (MHOM/IN/00/DEVI) used in this study was provided by the CNR Leishmania (Montpellier, France). The effects of the tested compounds on the growth of L. donovani (MHOM/IN/00/DEVI) promastigotes were assessed by MTT assay. Briefly, promastigotes in log-phase in Schneider’s medium supplemented with 20% fetal calf serum (FCS), 2 mM L-glutamine and antibiotics (100 U/mL penicillin and 100 µg/mL streptomycin), were incubated at an average density of 10^6 parasites/mL in sterile 96-well plates with various concentrations of compounds previously dissolved in DMSO (final concentration less than 0.5% v/v), in duplicate. […] Duplicate assays were performed for each sample. After the 72 h incubation period at 27 °C, parasite metabolic activity was determined. Each well was microscopically examined for precipitate formation. To each well was added 10 µL of 10 mg/mL MTT [3-(4,5-dimethylthiazol-2-yl)-2,5-diphenyltetrazolium bromide)] solution followed by 4 h incubation time. The enzyme reaction was stopped by addition of 100 µL of 50% isopropanol/10% sodium dodecyl sulfate. Plates were vigorously shaken (300 rpm) for 10 min, and the absorbance was measured at 570 nm with 630 nm as reference wavelength in a BIOTEK ELx808 Absorbance Microplate Reader (Agilent Technologies, Les Ulis, France). […] IC50 of the parasite’s growth (half maximal inhibitory concentration or IC50 values) were then calculated from the obtained experimental results using a previously described regression program. IC50 values were calculated from three independent experiments.

[7] = test system: Plasmodium telomeric sequence FPf8T G-quadruplex; experiment: FRET melting assay, FPf8T; assay type: binding, Plasmodium falciparum; conditions: compound 2 μM, oligonucleotide 0.2 μM, K+ conditions
Method: as §2

[8] = test system: human telomeric sequence F21T G-quadruplex; experiment: FRET melting assay, F21T; assay type: binding; conditions: compound 2 μM, oligonucleotide 0.2 μM, K+ conditions
Method: as §2

[9] = test system: Trypanosoma 9 and 11 chromosomic sequence FTrypBT (FEBR1T) G-quadruplex; experiment: FRET melting assay, FtrypBT; assay type: binding, Trypanosoma brucei brucei; conditions: compound 2 μM, oligonucleotide 0.2 μM, K+ conditions
Method: as §2

[10] = Cytotoxicity evaluation, MTT assay; assay type: cell-based, human; conditions: human
Method: These cells are a commonly used human hepatocarcinoma-derived cell line that has characteristics similar to those of primary hepatocytes. These cells express many hepatocyte-specific metabolic enzymes, thus enabling the cytotoxicity of tested product metabolites to be evaluated. […] Duplicate assays were performed for each sample. Each well was microscopically examined for precipitate formation before the medium was aspirated from the wells. After aspiration, 100 µL of MTT solution (0.5 mg/mL in medium without FCS) were then added to each well. […] The MTT solution was removed, and DMSO (100 µL) was added to dissolve the resulting blue formazan crystals. Plates were shaken vigorously (300 rpm) for 5 min. The absorbance was measured at 570 nm with 630 nm as reference wavelength in a BIO-TEK ELx808 Absorbance Microplate Reader. DMSO was used as blank and doxorubicin (Sigma Aldrich) as positive control. Cell viability was calculated as percentage of control (cells incubated without compound). The CC50 was determined from the dose-response curve using TableCurve 2D V5.0 software (Systat Software, Palo Alto, CA, USA).

Row | SMILES | IC50 [1] [nM] | ΔTm FdxT [2] [°C] | IC50 [3] [nM] | ΔTm FPf1T [4] [°C] | IC50 [5] [nM] | IC50 [6] [µM] | ΔTm FPf8T [7] [°C] | ΔTm F21T [8] [°C] | ΔTm FtrypBT [9] [°C] | CC50 at 72 h [10] [µM]
1 | c1ccc(-c2cc(CNCCN3CCCCC3)nc3c2ccc2c(-c4ccccc4)cc(CNCCN4CCCCC4)nc23)cc1 [Compound 1j] | 1590 ± 590 | 0.2 | 200 ± 20 | 5.6 | 2600 ± 550 | 2.52 ± 0.2 | 7.3 | 7.7 | 7.2 | 1.64 ± 0.14
2 | c1ccc(-c2cc(CNCCN3CCOCC3)nc3c2ccc2c(-c4ccccc4)cc(CNCCN4CCOCC4)nc23)cc1 [Compound 1h] | 670 ± 210 | −0.9 | 220 ± 60 | 1.8 | 170 ± 50 | 4.5 ± 2.2 | 1.9 | 2.0 | 2.2 | 5.89 ± 0.53
3 | c1ccc(-c2cc(CNCCCN3CCCCC3)nc3c2ccc2c(-c4ccccc4)cc(CNCCCN4CCCCC4)nc23)cc1 [Compound 1k] | 3180 ± 680 | 0.4 | 770 ± 100 | 12.8 | 1650 ± 360 | > 12.5 | 14.0 | 12.0 | 8.3 | 4.29 ± 0.52
4 | CN1CCN(CCCNCc2cc(-c3ccccc3)c3ccc4c(-c5ccccc5)cc(CNCCCN5CCN(C)CC5)nc4c3n2)CC1 [Compound 1f] | 21500 ± 4100 | −0.5 | 970 ± 110 | 8.8 | 11300 ± 2930 | > 12.5 | 10.9 | 10.8 | 9.1 | 8.62 ± 0.5
5 | c1ccc(-c2cc(CNCCc3ccncc3)nc3c2ccc2c(-c4ccccc4)cc(CNCCc4ccncc4)nc23)cc1 [Compound 1o] | 730 ± 190 | −0.3 | 210 ± 10 | 2.9 | 1870 ± 580 | 2.69 ± 0.6 | 5.2 | 3.9 | 5.3 | 19.1 ± 2.11
6 | CN(C)CCCNCc1cc(-c2ccccc2)c2ccc3c(-c4ccccc4)cc(CNCCCN(C)C)nc3c2n1 [Compound 1b, 2,9-Bis[(3-dimethylaminopropyl)aminomethyl]-4,7-diphenyl-1,10-phenanthroline] | 21200 ± 7720 | −0.3 | 570 ± 70 | 7.4 | 6130 ± 1630 | > 12.5 | 7.9 | 12.8 | 8.7 | 5.96 ± 0.2
7 | c1ccc(-c2cc(CNCCc3cccnc3)nc3c2ccc2c(-c4ccccc4)cc(CNCCc4cccnc4)nc23)cc1 [Compound 1n] | 710 ± 110 | −0.3 | 430 ± 30 | 2.9 | 2540 ± 360 | 2.67 ± 0.8 | 5.3 | 4.6 | 5.2 | 3.1 ± 0.19
8 | c1ccc(-c2cc(CNCCCN3CCOCC3)nc3c2ccc2c(-c4ccccc4)cc(CNCCCN4CCOCC4)nc23)cc1 [Compound 1i] | 1450 ± 580 | −1.5 | 290 ± 20 | 6.7 | 40 ± 10 | > 12.5 | 6.7 | 8.2 | 6.0 | 6.29 ± 1.06
9 | CN1CCN(CCCCNCc2cc(-c3ccccc3)c3ccc4c(-c5ccccc5)cc(CNCCCCN5CCN(C)CC5)nc4c3n2)CC1 [Compound 1g] | 8190 ± 3530 | −0.5 | 960 ± 130 | 13.4 | 2480 ± 490 | > 12.5 | 14.5 | 11.2 | 12.2 | 16.8 ± 0.6
